The results in this text go back to patent US9796719B2, “Compounds and pharmaceutical compositions thereof for the treatment of inflammatory disorders” (GALAPAGOS NV, priority 2013, dated 2017).

Usually IC50 stands for the point on the concentration scale where inhibition reaches its midpoint.

Assay [1] addresses T1, hENPP2 (UniProtKB/SwissProt Sequence ref Q13822) (Homo sapiens (Human), UniProt Q13822). Put plainly: FS3 hENPP2 assay (fluorogenic substrate FS-3). It is filed as biochemical. The following applies: hENPP2, FS-3 as substrate. Summed up: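 Compound dilutions (1/5 steps, top concentration as added 20 μM) were preincubated 30 min at room temperature with hENPP2 (0.4 or 0.64 μg/mL final) in pH 8.0 Tris buffer containing NaCl, KCl, MgCl2, CaCl2 and 0.1% fatty-acid-free BSA. FS-3 (0.75 μM as added) was then hydrolysed for 30 min at 30 °C, and fluorescence was read at 485/520 nm.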

Assay [2] addresses T1, hENPP2. Put plainly: LPC hENPP2 assay (choline release, LPC as substrate). It is filed as biochemical. A digest of the protocol: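 Choline released from LPC by ENPP2 is quantified after stopping with stop-developer containing 0.6 U/mL choline oxidase, 0.6 U/mL peroxidase, 1.8 mM TOOS, 1.2 mM amino-antipyrine and 20 mM EGTA. Quinoneimine dye read at 555 nm after 30 min at room temperature.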

Take `CCc1nc2ccc(N3CCC(NS(C)(=O)=O)CC3)nn2c1N(C)c1nc(-c2ccc(F)cc2)cs1` [Cpd 83, N-(1-(2-ethyl-3-((4-(4-fluorophenyl)thiazol-2-yl)(methyl)amino)imidazo[1,2-b]pyridazin-6-yl)piperidin-4-yl)methane-sulfonamide]: the IC50 against hENPP2 [1] is 0.01 to 25 nM; at hENPP2 [2], more than 1000 nM.

As for `CCc1nc2ccc(N3CCCC3CO)nn2c1N(C)c1nc(-c2ccc(F)cc2)cs1` (stereo not shown) [Cpd 142, (1-(2-ethyl-3-((4-(4-fluorophenyl)thiazol-2-yl)(methyl)amino)imidazo[1,2-b]pyridazin-6-yl)pyrrolidin-2-yl)methanol], the IC50 against hENPP2 [1] was 0.01 to 25 nM; on hENPP2 [2], more than 1000 nM.

For `CCc1nc2ccc(N3CCCN(C(C)=O)CC3)nn2c1N(C)c1nc(-c2ccc(F)cc2)cs1` [Cpd 115, 1-(4-(2-ethyl-3-((4-(4-fluorophenyl)thiazol-2-yl)(methyl)amino)imidazo[1,2-b]pyridazin-6-yl)-1,4-diazepan-1-yl)ethanone], the IC50 at hENPP2 [1] was 0.01 to 25 nM; against hENPP2 [2], more than 1000 nM.

Turning to `CCc1nc2ccc(N3CCC(N)C3)nn2c1N(C)c1nc(-c2ccc(F)cc2)cs1` (stereo not shown) [Cpd 134, N-(6-(3-aminopyrrolidin-1-yl)-2-ethylimidazo[1,2-b]pyridazin-3-yl)-4-(4-fluorophenyl)-N-methylthiazol-2-amine], the IC50 against hENPP2 [1] was 0.01 to 25 nM; at hENPP2 [2], more than 1000 nM.

For `CCc1nc2ccc(N3CCC(C(N)=O)CC3)nn2c1N(C)c1nc(-c2ccc(F)cc2)cs1` [Cpd 98, 1-(2-ethyl-3-((4-(4-fluorophenyl)thiazol-2-yl)(methyl)amino)imidazo[1,2-b]pyridazin-6-yl)piperidine-4-carboxamide], the IC50 on hENPP2 [1] was 0.01 to 25 nM; against hENPP2 [2], more than 1000 nM.

`CCc1nc2ccc(N3CCC(N4CCN(CCCO)CC4)C3)nn2c1N(C)c1nc(-c2ccc(F)cc2)cs1` (stereo not shown) [Cpd 145, 3-(4-(1-(2-ethyl-3-((4-(4-fluorophenyl)thiazol-2-yl)(methyl)amino)imidazo[1,2-b]pyridazin-6-yl)pyrrolidin-3-yl)piperazin-1-yl)propan-1-ol]: the IC50 on hENPP2 [1] lay in the range of 0.01 to 25 nM; against hENPP2 [2] it was 500 to 1000 nM.

With `CCc1nc2ccc(N3CC(NC(=O)OC(C)(C)C)C3)nn2c1N(C)c1nc(-c2ccc(F)cc2)cs1` [Cpd 154, [1-(2-Ethyl-3-{[4-(4-fluoro-phenyl)-thiazol-2-yl]-methyl-amino}-imidazo[1,2-b]pyridazin-6-yl)-azetidin-3-yl]-carbamic acid tert-butyl ester], the IC50 against hENPP2 [1] was 0.01 to 25 nM; against hENPP2 [2], more than 1000 nM.

As to `CCc1nc2ccc(N3CCCN(S(C)(=O)=O)CC3)nn2c1N(C)c1nc(-c2ccc(F)cc2)cs1` [Cpd 116, N-(2-ethyl-6-(4-(methylsulfonyl)-1,4-diazepan-1-yl)imidazo[1,2-b]pyridazin-3-yl)-4-(4-fluorophenyl)-N-methylthiazol-2-amine], the values for the IC50 against hENPP2 [1] and against hENPP2 [2] were 0.01 to 25 nM and more than 1000 nM, respectively.

`CN(c1nc(-c2ccc(F)cc2)cs1)c1c(CCCO)nc2ccc(C3CCN(S(C)(=O)=O)CC3)nn12` [Compound 200, 3-(3-((4-(4-fluorophenyl)thiazol-2-yl)(methyl)amino)-6-(1-(methylsulfonyl)piperidin-4-yl)imidazo[1,2-b]pyridazin-2-yl)propan-1-ol]: the values for the IC50 against hENPP2 [1] and against hENPP2 [2] were 0.01 to 25 nM and more than 1000 nM, respectively.

`CCc1nc2ccc(N3CCC(NC(=O)OC(C)(C)C)C3)nn2c1N(C)c1nc(-c2ccc(F)cc2)cs1` (stereo not shown) [Cpd 133, tert-butyl 1-(2-ethyl-3-((4-(4-fluorophenyl)thiazol-2-yl)(methyl)amino)imidazo[1,2-b]pyridazin-6-yl)pyrrolidin-3-ylcarbamate]: the IC50 at hENPP2 [1] was 0.01 to 25 nM; at hENPP2 [2], more than 1000 nM.

For `CCc1nc2ccc(C3CCN(CC(=O)N4CC(O)C4)CC3)nn2c1N(C)c1nc(-c2ccc(F)cc2)c(C#N)s1` [Cpd 212, 2-((2-ethyl-6-(1-(2-(3-hydroxyazetidin-1-yl)-2-oxoethyl)piperidin-4-yl)imidazo[1,2-b]pyridazin-3-yl)(methyl)amino)-4-(4-fluorophenyl) thiazole-5-carbonitrile], the IC50 at hENPP2 [1] was in the range of 0.01 to 25 nM; on hENPP2 [2], 0.01 to 100 nM.

For the compound `CCc1nc2ccc(C3CCN(CC(=O)N4CC(O)C4)CC3)nn2c1N(C)c1cccc(-c2ccc(F)cc2)n1` [Cpd 214, 2-(4-(2-ethyl-3-((6-(4-fluorophenyl)pyridin-2-yl)(methyl)amino)imidazo[1,2-b]pyridazin-6-yl)piperidin-1-yl)-1-(3-hydroxyazetidin-1-yl)ethanone], the IC50 against hENPP2 [1] was 0.01 to 25 nM; against hENPP2 [2], 500 to 1000 nM.

As to `CCc1nc2ccc(N3CCOCC3)nn2c1N(C)c1nc(-c2ccc(F)cc2)cs1` [Cpd 78, N-(2-ethyl-6-morpholinoimidazo [1,2-b]pyridazin-3-yl)-4-(4-fluorophenyl)-N-methylthiazol-2-amine], the results for the IC50 against hENPP2 [1] and on hENPP2 [2] were 0.01 to 25 nM and more than 1000 nM, respectively.

`CCc1nc2cnc(N3CCN(CC(=O)N4CC(F)C4)CC3)cn2c1N(C)c1nc(-c2ccc(F)cc2)c(C#N)s1` [Cpd 11, 2-((2-ethyl-6-(4-(2-(3-fluoroazetidin-1-yl)-2-oxoethyl)piperazin-1-yl)imidazo[1,2-a]pyrazin-3-yl)(methyl)amino)-4-(4-fluorophenyl) thiazole-5-carbonitrile]: the values for the IC50 on hENPP2 [1] and at hENPP2 [2] were 0.01 to 25 nM and 100 to 500 nM, respectively.

On to `CCc1nc2ccc(N3CCN(CC(=O)N4CC(O)C4)CC3)nn2c1N(C)c1nc(-c2ccc(F)cc2)cs1` [Cpd 26], for which the IC50 lay in the range of 0.01 to 25 nM against hENPP2 [1] and 100 to 500 nM at hENPP2 [2].

On to `CCc1nc2ccc(N3CCC(S(=O)(=O)NC4CC4)CC3)nn2c1N(C)c1nc(-c2ccc(F)cc2)cs1` [Cpd 114, N-cyclopropyl-1-(2-ethyl-3-((4-(4-fluorophenyl)thiazol-2-yl)(methyl)amino)imidazo[1,2-b]pyridazin-6-yl)piperidine-4-sulfonamide], for which the IC50 against hENPP2 [1] is 50 to 100 nM; against hENPP2 [2], more than 1000 nM.

As to `CCc1nc2ccc(N3CCC(N4CCSCC4)C3)nn2c1N(C)c1nc(-c2ccc(F)cc2)cs1` (stereo not shown) [Cpd 131, N-(2-ethyl-6-(3-thiomorpholino-pyrrolidin-1-yl)imidazo[1,2-b]pyridazin-3-yl)-4-(4-fluorophenyl)-N-methylthiazol-2-amine], the IC50 on hENPP2 [1] was 0.01 to 25 nM; at hENPP2 [2] it was more than 1000 nM.

For the compound `CCc1nc2ccc(N3CCN(CC(=O)N4CCCC4)CC3)nn2c1N(C)c1nc(-c2ccc(F)cc2)cs1` [Cpd 55, 2-(4-(2-ethyl-3-((4-(4-fluorophenyl)thiazol-2-yl)(methyl)amino)imidazo[1,2-b]pyridazin-6-yl)piperazin-1-yl)-1-(pyrrolidin-1-yl)ethanone], the IC50 at hENPP2 [1] lay within 0.01 to 25 nM; on hENPP2 [2] it was 100 to 500 nM.

Take `CCc1nc2ccc(N3CCC(CO)CC3)nn2c1N(C)c1nc(-c2ccc(F)cc2)cs1` [Cpd 93, (1-(2-ethyl-3-((4-(4-fluorophenyl)thiazol-2-yl)(methyl)amino)imidazo[1,2-b]pyridazin-6-yl)piperidin-4-yl)methanol]: the IC50 on hENPP2 [1] is 0.01 to 25 nM; against hENPP2 [2] it was more than 1000 nM.

In the case of `CCc1nc2ccc(N3CCC(N4CCC(O)CC4)C3)nn2c1N(C)c1nc(-c2ccc(F)cc2)cs1` (stereo not shown) [Cpd 152, 1-(1-(2-ethyl-3-((4-(4-fluorophenyl)thiazol-2-yl)(methyl)amino)imidazo[1,2-b]pyridazin-6-yl)pyrrolidin-3-yl)piperidin-4-ol], the IC50 against hENPP2 [1] fell in the range of 0.01 to 25 nM; at hENPP2 [2], 500 to 1000 nM.
